Reference: BindingDB's records for PubMed 35123298 (Comsats University Islamabad, 2022)

Columns and labels:
[1] = Negative allosteric modulation activity at human P2X4 receptor expressed in human 1321N1 cells assessed as ATP induced calcium response by measuring ATP EC50 at 40 nM
[2] = Negative allosteric modulation activity at human P2X4 receptor expressed in human 1321N1 cells assessed as ATP induced calcium response by measuring ATP EC50 at 100 nM
[3] = Negative allosteric modulation activity at human P2X4 receptor expressed in human 1321N1 cells assessed as ATP induced calcium response by measuring ATP EC50 at 200 nM
[4] = Negative allosteric modulation activity at human P2X7 receptor expressed in human 1321N1 cells assessed as ATP induced calcium response by measuring ATP EC50 at 40 nM
[5] = Negative allosteric modulation activity at human P2X7 receptor expressed in human 1321N1 cells assessed as ATP induced calcium response by measuring ATP EC50 at 100 nM
[6] = Negative allosteric modulation activity at human P2X7 receptor expressed in human 1321N1 cells assessed as ATP induced calcium response by measuring ATP EC50 at 200 nM

Molecule CC(C)c1ccc(NC(=S)NC(=O)C23CC4CC(CC(C4)C2)C3)c(Br)c1 has an EC50 [1] of 10.1 µM, an EC50 [2] of 8.96 µM and an EC50 [3] of 12.2 µM.
Work on O=C(NC(=S)Nc1cccc2cccnc12)C12CC3CC(CC(C3)C1)C2 yielded an EC50 [4] of 6.62 µM, an EC50 [5] of 6.08 µM and an EC50 [6] of 2.19 µM.
